Values quoted from earlier work as cited in patent publication US20230404964A1, “COMBINATION FOR REDUCING OXIDATIVE STRESS IN THE BODY AND MAINTAINING LIVER FUNCTIONS” (priority 2020, published 2023).
Values joined by “and” are separate entries in the source; they are usually repeats but may differ in a detail not shown here. Identical values can stand only once.

Test system: HUVEC cells
Settings: pretreatment with DHM 37.5-300 μmol, hydrogen peroxide

Which decrease in apoptosis (depending on the dose) does the source give for `O=C1c2c(O)cc(O)cc2O[C@H](c2cc(O)c(O)c(O)c2)[C@H]1O` [DHM, Dihydromyricetin] here?
Its decrease in apoptosis is 14.83% and 11.1% and 9.12%.

What about the “MDA concentration (in words)” value of the same compound?
The value was “decrease in the MDA concentration”.

What about the “production of reactive oxygen species (in words)” value of the same compound?
The value was “significant decrease in the production of reactive oxygen species”.
